In patent US9861099B2, “Composition for enhancing plant disease control effect of monosaccharide” (MITSUI CHEMICALS AGRO, INC., priority 2013, dated 2018):

Key:
Assay type in all cases: in vivo
[1] = system: Pseudoperonospora cubensis; assay: Cucumber downy mildew (CDM) control test
[2] = system: Sphaerotheca cucurbitae; assay: Cucumber powdery mildew (CPM) control test; conditions: Table 9: monosaccharide 10% liquid preparation, no assistant, 10-fold dilution (monosaccharide 1%)
[3] = system: Botrytis cinerea; assay: Tomato gray mold (GM) control test; conditions: Table 9: monosaccharide 10% liquid preparation, no assistant, 10-fold dilution (monosaccharide 1%)
Description: (GM: Gray Mold) Test plants (tomato variety: Oogata Fukuju) were planted followed by cultivating until three first leaves appeared. In the test, dilutions (5 ml/pot) obtained by diluting with distilled water so that each formula reached a prescribed concentration were sprayed. After inoculating the seedlings one day after spraying by spraying with 1×10^7 organisms/ml of conidia of Botrytis cinerea, the seedlings were allowed to stand for about 48 hours in an inoculation room at a room temperature of 20° C. to 23° C. to promote the onset of disease. Disease development was investigated 2 days after inoculation, and the effects thereof were evaluated. Disease development was evaluated using the following indicators for disease control tests evaluated according to the methods described above. Furthermore, preventive values were calculated based on the disease development.

[4] = system: Plasmopara viticola; assay: Grape vine downy mildew (VDM) control test; conditions: Table 9: monosaccharide 10% liquid preparation, no assistant, 10-fold dilution (monosaccharide 1%)
[5] = system: Rhizoctonia solani AGI-IA; assay: Rice sheath blight (SB) control test; conditions: Table 9: monosaccharide 10% liquid preparation, no assistant, 10-fold dilution (monosaccharide 1%)
Description: (SB: Sheath Blight) Test plants (rice variety: Sachikaze) were planted followed by cultivating until the third leaf appeared. In the test, dilutions (5 ml/pot) obtained by diluting with distilled water so that each formula reached a prescribed concentration were sprayed. After inoculating the seedlings one day after spraying with clumps of Rhizoctonia solani AGI-IA cultured for 14 days in oat medium, the seedlings were allowed to stand for about 24 hours in an inoculation room at a room temperature of 28° C. to promote the onset of disease. Disease development was investigated 14 days after inoculation, and the effects thereof were evaluated. Disease development was evaluated using the following indicators for disease control tests evaluated according to the methods described above. Furthermore, preventive values were calculated based on the disease development.

[6] = system: Magnaporthe grisea; conditions: Table 9: monosaccharide 10% liquid preparation, no assistant, 10-fold dilution (monosaccharide 1%)
[7] = Table 8: D-tagatose liquid preparation with assistant (5 parts), 10-fold dilution (D-tagatose 0.5%+assistant 0.5%), improvement vs D-tagatose only

Compound	Evaluation Score CDM [1, 7]	other results
OC[C@@H](O)[C@@H](O)[C@@H](O)[C@@H](O)CO [Allitol]	2 (Improvement in preventive value of 10 to less than 20)	–
Nc1ncnc2c1ncn2[C@@H]1O[C@H](CO)[C@@H](O)[C@H]1O [Adenosine]	0	–
Nc1cc[nH]c(=O)n1 [Cytosine]	0	–
OC[C@@H](O)[C@H](O)[C@@H](O)CO [Xylitol]	2 (Improvement in preventive value of 10 to less than 20)	–
L-valine	3 (Improvement in preventive value of 20 to less than 30)	–
L-alanine	2 (Improvement in preventive value of 10 to less than 20)	–
Stachyose	1 (Improvement in preventive value of 1 to less than 10)	–
OC[C@H]1O[C@H](O[C@H]2[C@H](O)[C@@H](O)C(O)O[C@@H]2CO)[C@H](O)[C@@H](O)[C@@H]1O (mixture of isomers) [Maltose]	1 (Improvement in preventive value of 1 to less than 10)	–
N[C@@H](CS)C(=O)O [L-cysteine]	3 (Improvement in preventive value of 20 to less than 30)	–
CC[C@H](C)[C@H](N)C(=O)O [L-isoleucine]	1 (Improvement in preventive value of 1 to less than 10)	–
C[N+](C)(C)CC(O)CC(=O)[O-] (racemic) [DL-carnitine]	2 (Improvement in preventive value of 10 to less than 20)	–
O=C(O)[C@@H]1CCCN1 [L-proline]	1 (Improvement in preventive value of 1 to less than 10)	–
O=C(O)CCCC(=O)O [Glutaric acid]	–	Evaluation Score CDM ([1]; in vivo): 0
N[C@@H](CO)C(=O)O [L-serine]	1 (Improvement in preventive value of 1 to less than 10)	–
Nc1nc2c(ncn2[C@@H]2O[C@H](CO)[C@@H](O)[C@H]2O)c(=O)[nH]1 [Guanosine]	0	–
O=C[C@@H](O)[C@H](O)[C@H](O)CO [D-arabinose]	1 (Improvement in preventive value of 1 to less than 10)	–
CC(O)C(=O)O (stereo not shown) [Lactic acid]	0	–
O=C[C@H](O)[C@@H](O)[C@H](O[C@@H]1O[C@H](CO)[C@@H](O)[C@H](O)[C@H]1O)[C@H](O)CO [Cellobiose]	1 (Improvement in preventive value of 1 to less than 10)	–
C[C@@H](O)[C@H](N)C(=O)O [L-threonine]	1 (Improvement in preventive value of 1 to less than 10)	–
C[C@H](O)[C@H](O)[C@@H](O)[C@@H](O)C=O [L-rhamnose]	2 (Improvement in preventive value of 10 to less than 20)	–

Compound	Evaluation Score CDM [1, 7]	other results
OC[C@@H](O)[C@@H](O)[C@H](O)[C@H](O)CO [D-mannitol]	1 (Improvement in preventive value of 1 to less than 10)	–
D-glucose	1 (Improvement in preventive value of 1 to less than 10)	–
L-leucine	3 (Improvement in preventive value of 20 to less than 30)	–
O=C[C@H](O)[C@@H](O)[C@H](O)[C@H](O)C(=O)[O-].[Na+] [Sodium D-glucuronate]	1 (Improvement in preventive value of 1 to less than 10)	–
O=C(CO)[C@@H](O)[C@H](O)CO [D-xylulose]	1 (Improvement in preventive value of 1 to less than 10)	–
N[C@@H](Cc1ccccc1)C(=O)O [L-phenylalanine]	3 (Improvement in preventive value of 20 to less than 30)	–
O=C(O)CC(=O)O [Malonic acid]	0	–
O=C[C@H](O)[C@H](O)[C@H](O)CO [D-ribose]	2 (Improvement in preventive value of 10 to less than 20)	–
Nc1ccn([C@@H]2O[C@H](CO)[C@@H](O)[C@H]2O)c(=O)n1 [Cytidine]	1 (Improvement in preventive value of 1 to less than 10)	–
OC[C@H]1O[C@H](OC[C@H]2O[C@H](O[C@]3(CO)O[C@H](CO)[C@@H](O)[C@@H]3O)[C@H](O)[C@@H](O)[C@@H]2O)[C@H](O)[C@@H](O)[C@H]1O [Raffinose]	4 (Improvement in preventive value of 30 to less than 40)	–
O=C[C@H](O)CO [D-glyceraldehyde]	4 (Improvement in preventive value of 30 to less than 40)	–
O=C(CO)[C@@H](O)[C@H](O[C@H]1O[C@H](CO)[C@@H](O)[C@H](O)[C@H]1O)[C@H](O)CO [Maltulose]	1 (Improvement in preventive value of 1 to less than 10)	–
OC[C@H]1O[C@H](O[C@H]2O[C@H](CO)[C@@H](O)[C@H](O)[C@H]2O)[C@H](O)[C@@H](O)[C@@H]1O [Trehalose]	3 (Improvement in preventive value of 20 to less than 30)	–
C[C@@H]1OC(O)[C@@H](O)[C@H](O)[C@@H]1O (stereo partly drawn) [L-fucose]	2 (Improvement in preventive value of 10 to less than 20)	–
Nc1ncnc2[nH]cnc12 [Adenine]	0	–
O=CC[C@H](O)[C@H](O)CO [Formula 2-deoxy-D-ribose, 2-deoxy-D-ribose]	4 (Improvement in preventive value of 30 to less than 40)	–
O=C1O[C@H](CO)[C@@H](O)[C@H](O)[C@H]1O [D-gluconolactone]	2 (Improvement in preventive value of 10 to less than 20)	–
O=C[C@H](O)[C@@H](O)[C@@H](O)[C@H](O)C(=O)O [D-galacturonic acid]	3 (Improvement in preventive value of 20 to less than 30)	–
O=C(CO)[C@H](O)[C@@H](O)[C@@H](O)CO [L-fructose]	–	preventive value CPM [2]: (33); preventive value GM [3]: (40); preventive value VDM [4]: (0); preventive value SB [5]: (60); preventive value B [6]: (0)
N[C@@H](Cc1c[nH]cn1)C(=O)O [L-histidine]	3 (Improvement in preventive value of 20 to less than 30)	–

Compound	Evaluation Score CDM [1, 7]	other results
CSCC[C@H](N)C(=O)O [L-methionine]	2 (Improvement in preventive value of 10 to less than 20)	–
D-mannose	2 (Improvement in preventive value of 10 to less than 20)	preventive value CPM [2]: (33); preventive value GM [3]: (16); preventive value SB [5]: (60); preventive value B [6]: (17)
NC(=O)CC[C@H](N)C(=O)O [L-glutamine]	1 (Improvement in preventive value of 1 to less than 10)	–
O=C[C@@H](O)[C@@H](O)[C@@H](O)[C@H](O)CO [D-talose]	2 (Improvement in preventive value of 10 to less than 20)	preventive value CPM [2]: (17); preventive value VDM [4]: (0); preventive value SB [5]: (30); preventive value B [6]: (50)
O=C[C@H](O)[C@@H](O)[C@H](O)CO [D-xylose]	1 (Improvement in preventive value of 1 to less than 10)	–
O=C(CO)[C@@H](O)[C@H](O)[C@H](O)CO [D-fructose]	2 (Improvement in preventive value of 10 to less than 20)	–
O=C(O)c1ccccc1 [Benzoic acid]	–	Evaluation Score CDM ([1]; in vivo): 0
OC[C@@H](O)[C@@H](O)CO [Meso-erythritol]	3 (Improvement in preventive value of 20 to less than 30)	–
Lactose	1 (Improvement in preventive value of 1 to less than 10)	–
NC(=O)C[C@H](N)C(=O)O [L-asparagine]	1 (Improvement in preventive value of 1 to less than 10)	–
OC[C@H]1OC(O)[C@@H](O)[C@H](O)[C@@H]1O (stereo partly drawn) [D-altrose]	4 (Improvement in preventive value of 30 to less than 40)	–
CC(=O)O [Acetic acid]	1 (Improvement in preventive value of 1 to less than 10)	–
C[C@@H](O)[C@H](O)[C@H](O)[C@@H](O)C=O [D-fucose]	2 (Improvement in preventive value of 10 to less than 20)	–
Nc1nc2nc[nH]c2c(=O)[nH]1 [Guanine]	–	Evaluation Score CDM ([1]; in vivo): 0
O=c1ccn([C@@H]2O[C@H](CO)[C@@H](O)[C@H]2O)c(=O)[nH]1 [Uridine]	0	–
OC[C@H]1O[C@@](CO)(O[C@H]2O[C@H](CO)[C@@H](O)[C@H](O)[C@H]2O)[C@@H](O)[C@@H]1O [Sucrose]	1 (Improvement in preventive value of 1 to less than 10)	–
OC[C@@H](O)[C@@H](O)[C@H](O)[C@@H](O)CO [D-sorbitol]	1 (Improvement in preventive value of 1 to less than 10)	–
O=c1cc[nH]c(=O)[nH]1 [Uracil]	1 (Improvement in preventive value of 1 to less than 10)	–
